# Measured values reported in the Deep4Chem optical property database.
# Assay: solvent given as SMILES
smiles,measurement,setting,value
CC(C)[Si](C#Cc1c2cc3ccccc3cc2c(C#C[Si](C(C)C)(C(C)C)C(C)C)c2nc3c4ccccc4c(=O)c4ccccc4c3nc12)(C(C)C)C(C)C,absorption maximum,in ClCCl,615 nm
CCCCCCc1cc2c(s1)-c1sc(CCCCCC)cc1P(c1ccccc1)(c1ccccc1)=[O+][B-]2(c1c(C)cc(C)cc1C)c1c(C)cc(C)cc1C,absorption maximum,in C1CCOC1,431 nm
CCn1c2ccccc2c2cc(/C=C/c3cccc(/C=C/c4ccc5c(c4)c4ccccc4n5CC)[n+]3CCCS(=O)(=O)[O-])ccc21,absorption maximum,in C1CCOC1,460 nm
same,absorption maximum,in CC#N,454 nm
same,absorption maximum,in CC(C)=O,458 nm
same,absorption maximum,in Cc1ccccc1,453 nm
c1ccc2c(c1)ccc1ccccc12,absorption maximum,in Cc1ccccc1,295 nm
COc1cc(OC)cc(-c2ccc(-c3ccc(C#N)s3)s2)c1,absorption maximum,in C1CCCCC1,360 nm
same,absorption maximum,in C1COCCO1,366 nm
same,absorption maximum,in CC#N,364 nm
same,absorption maximum,in CC(C)O,365 nm
same,absorption maximum,in CCCCO,367 nm
same,absorption maximum,in CCO,365 nm
same,absorption maximum,in CCOC(C)=O,365 nm
same,absorption maximum,in CN(C)C=O,370 nm
same,absorption maximum,in CO,364 nm
same,absorption maximum,in CS(C)=O,372 nm
same,absorption maximum,in Cc1ccccc1,366 nm
same,absorption maximum,in ClC(Cl)Cl,367 nm
same,absorption maximum,in ClCCl,366 nm
same,absorption maximum,in O,337 nm
Cc1cc(O)c(C(C)C)cc1/N=C/c1ccc([N+](=O)[O-])cc1,absorption maximum,in C1CCCCC1,385 nm
same,absorption maximum,in C1CCOC1,402 nm
same,absorption maximum,in C1COCCO1,393 nm
same,absorption maximum,in CC#N,392 nm
same,absorption maximum,in CC(C)(C)O,407 nm
same,absorption maximum,in CC(C)O,404 nm
same,absorption maximum,in CCCCCC,383 nm
same,absorption maximum,in CCCCO,405 nm
same,absorption maximum,in CCO,402 nm
same,absorption maximum,in CCOC(C)=O,397 nm
same,absorption maximum,in CN(C)C=O,407 nm
same,absorption maximum,in CO,399 nm
same,absorption maximum,in CS(C)=O,410 nm
same,absorption maximum,in ClC(Cl)Cl,398 nm
same,absorption maximum,in ClCCl,392 nm
same,absorption maximum,in O,395 nm
same,absorption maximum,in OCCO,401 nm
CC(C)(C)c1ccc2c(c1)sc1[n+]2[B-](F)(F)n2c(c3cccc4c(Br)ccc2c43)=C1C#N,absorption maximum,in C1CCOC1,539 nm
same,absorption maximum,in CC#N,532 nm
same,absorption maximum,in CCCCCC,542 nm
same,absorption maximum,in Cc1ccccc1,543 nm
same,absorption maximum,in ClCCl,538 nm
Fc1ccc(C#Cc2cc(C#Cc3ccc(F)cc3)c(C#Cc3ccc(F)cc3)c(C#Cc3ccc(F)cc3)c2C#Cc2ccc(F)cc2)cc1,absorption maximum,in ClCCl,371 nm
CCN1c2ccc(/C=N/Nc3ccccn3)cc2Sc2cc(/C=N/Nc3ccccn3)ccc21,absorption maximum,in C1CCOC1,392 nm
same,absorption maximum,in CS(C)=O,398 nm
same,absorption maximum,in Cc1ccccc1,392 nm
same,absorption maximum,in ClCCl,393 nm
CCN(CC)c1ccc(/C=C/C2=[O+][B-](F)(F)Oc3c2c(=O)oc2cc(N(CC)CC)ccc32)cc1,absorption maximum,in C1CCCCC1,542 nm
same,absorption maximum,in C1COCCO1,569 nm
same,absorption maximum,in CC#N,589 nm
same,absorption maximum,in CC(C)=O,584 nm
same,absorption maximum,in CCO,581 nm
same,absorption maximum,in CCOC(C)=O,571 nm
same,absorption maximum,in CO,582 nm
same,absorption maximum,in CS(C)=O,607 nm
same,absorption maximum,in Cc1ccccc1,567 nm
same,absorption maximum,in ClC(Cl)Cl,581 nm
same,absorption maximum,in ClCCl,587 nm
same,absorption maximum,in OCC(O)CO,610 nm
same,absorption maximum,in OCCO,605 nm
c1ccc(-n2c(-c3ccc([Si](c4ccc(-c5nc6ccccc6n5-c5ccccc5)cc4)(c4ccc(-c5nc6ccccc6n5-c5ccccc5)cc4)c4ccc(-c5nc6ccccc6n5-c5ccccc5)cc4)cc3)nc3ccccc32)cc1,absorption maximum,in ClCCl,306 nm
FC(F)(F)c1ccc2oc3nc4oc5ccc(N(c6ccccc6)c6ccccc6)cc5c4cc3c2c1,absorption maximum,in ClC(Cl)Cl,345 nm
CC1=[N+]2C(=C(c3ccccc3)c3ccc(/C=C/c4ccc(C(=C(c5ccccc5)c5ccccc5)c5ccccc5)cc4)n3[B-]2(F)F)C=C1,absorption maximum,in C1CCOC1,585 nm
CCCCCCCCCCCCN1C(=O)c2c(c3ccc4cc(-c5ccc(-c6ccccc6)cc5)c(OC)cc4c3c3c2ccc2cc(-c4ccc(-c5ccccc5)cc4)c(OC)cc23)C1=O,absorption maximum,in ClCCl,437 nm
CC(C)(C)c1ccc(-c2c(-c3ccc(-n4c5ccccc5c5ccccc54)cc3)cc(-c3ccc(-n4c5ccccc5c5ccccc54)cc3)c(-c3ccc(C(C)(C)C)cc3)c2-c2ccc(C(C)(C)C)cc2)cc1,absorption maximum,in C1CCOC1,341 nm
C(=C\c1cnc2ccccc2n1)/c1ccc(N(c2ccccc2)c2ccccc2)cc1,absorption maximum,in C1CCOC1,423 nm
same,absorption maximum,in CC#N,425 nm
same,absorption maximum,in CS(C)=O,436 nm
same,absorption maximum,in ClCCl,427 nm
COC(=O)c1cc(=O)n(C)c2cc(-c3cccc(N(C)C)c3)sc12,absorption maximum,in CC#N,396 nm
same,absorption maximum,in ClCCl,396 nm
